Measured values taken from patent US7569605B2, “Methods of treating central nervous system disorders with a low dose combination of escitalopram and bupropion” (Forest Laboratories Holdings Limited, priority 2005, dated 2009).
Values joined by “and” are separate entries in the source; they are usually repeats but may differ in a detail not shown here. Identical values can stand only once. Marks after values point to notes of the source that are not given here.

Experiments:
[1] = test system: patients with major depressive disorder (MDD); assay: double-blind fixed dose comparison in major depressive disorder: efficacy (MADRS, HAMD, CGI, HAMA, QOL); format: in vivo, human; parameters: key to QOL: LS mean change from baseline to endpoint (LOCF): aggregated 5-point item scores; higher = greater enjoyment/satisfaction; HAMD17: LS mean change from baseline to endpoint (LOCF): scale not given here; settings: escitalopram 4 mg, bupropion XL 150 mg, 8 weeks; for CGI % response: CGI-I response = 1 or 2; for HAMD17 % remission: HAMD17 remission <=7; for HAMD24 % response: HAMD24 response >=50% improvement; for MADRS % remission: MADRS remission <=12; for MADRS % response: MADRS response >=50% improvement; for CGI-I: LS mean (LOCF) / CGI-S: LS mean change from baseline to endpoint (LOCF) / HAMA: LS mean change from baseline to endpoint (LOCF) / HAMD17: LS mean change from baseline to endpoint (LOCF) / HAMD24 2° parameter, validated: LS mean change from baseline to endpoint (LOCF) / HAMD cognit disturb: LS mean change from baseline to endpoint (LOCF) / HAMD psychomotor: LS mean change from baseline to endpoint (LOCF) / MADRS 1° parameter, validated: LS mean change from baseline to endpoint (LOCF) / QOL: LS mean change from baseline to endpoint (LOCF): vs placebo
Experimental: This clinical study is conducted as a double-blind, randomized, fixed-dose, multicenter, parallel-group study in outpatients as shown in the Figure below: […] Approximately 135 patients are randomized to each of four treatment groups (placebo, escitalopram oxalate 4 mg, bupropion hydrochloride 150 mg, or escitalopram oxalate 4 mg/bupropion hydrochloride 150 mg), for a total of […]. A randomized, double-blind, fixed-dose, multicenter, parallel-group study is conducted in outpatients with MDD. […] Assignment to a treatment group is according to a computer-generated randomization schedule. […] The following primary efficacy assessments are performed at patient visits: […] The following secondary efficacy assessments are performed at patient visits: […] The following additional efficacy assessments are performed at patient visits: […] This scale rates the severity of the patient's current state of mental illness based on the investigator's clinical opinion with regard to a patient population with MDD. The patient is rated on a scale of 1 to 7 with 1 being normal and 7 being a patient who was among the most extremely ill. […] Based on the investigator's clinical opinion, this scale rates the total improvement or worsening in the patient's mental illness from his/her baseline assessment, regardless of whether or not the investigator considered it due to drug treatment. The patient is rated on a scale from 1 to 7 with 1 being very much improved and 7 being very much worse. […] Each item is scored on a 5 point scale with 0 reflecting no symptoms and 4 reflecting symptoms of maximum severity. […] Five-point item scores are aggregated, with higher scores indicative of greater enjoyment or satisfaction in each domain. Dosing: For the single-blind lead-in period, patients are supplied with placebo capsules. For the double-blind period, identical appearing capsules are supplied which contain placebo, escitalopram 4 mg, or bupropion extended-release 150 mg. […] All study medication is administered as a single daily dose throughout the study, preferably at the same time each evening starting on the day the medication is dispensed to the patient. Dosing is subsequently be switched to morning, if preferred. […] Patients are instructed to return all unused medication at each study visit. […] Patients are instructed to take two capsules daily as a single dose beginning on the day study medication is dispensed. […] Patients are assigned the lowest randomization number available at the site. Patients are instructed to take two capsules daily as a single dose beginning on the day study medication is dispensed. In accordance with their assigned treatment group, patients receive placebo, 4 mg escitalopram, 150 mg bupropion, or 4 mg escitalopram and 150 mg bupropion per day. […] Patients are instructed to continue taking two capsules daily as a single dose. In accordance with their assigned treatment group, patients receive placebo, 4 mg escitalopram, 150 bupropion, or 4 mg escitalopram and 150 mg bupropion per day. Efficacy: All efficacy analyses are based on the Intent-to-Treat (ITT) Population. […] All efficacy analyses are performed using both the Last Observation Carried Forward (LOCF) and the Observed Cases (OC) approach. In these analyses, the last observed value before a post-baseline missing value are carried forward to impute the missing value. […] For OC analyses, only observed values are used. […] The primary analysis is performed using the LOCF approach. Three primary comparisons between the escitalopram/bupropion combination group relative to each of the three other groups (placebo, escitalopram, or bupropion) are performed using an ANCOVA model with the treatment group and center as factors and the baseline MADRS score as a covariate. […] The analyses are carried out using a similar statistical model as used for the primary efficacy parameter. […]

[2] = test system: patients with major depressive disorder (MDD); assay: Arizona Sexual Experiences Scale (ASEX) in the fixed dose comparison study; format: in vivo, human
Experimental: The study consists of a one-week single-blind placebo lead-in period followed by an 8 week double-blind treatment period. Approximately 135 patients are randomized to each of four treatment groups (placebo, escitalopram oxalate 4 mg, bupropion hydrochloride 150 mg, or escitalopram oxalate 4 mg/bupropion hydrochloride 150 mg), for a total of […].
A randomized, double-blind, fixed-dose, multicenter, parallel-group study is conducted in outpatients with MDD. Patients who meet eligibility criteria at Screening (Visit 1) enter a one-week, single-blind, lead-in period of placebo treatment. Patients who complete the lead-in period and continue to meet all entry criteria at Baseline (Visit 2) are randomly assigned to 8 weeks of double-blind treatment with either placebo, escitalopram 4 mg, bupropion XL 150 mg, or escitalopram 4 mg/bupropion XL 150 mg combination. Assignment to a treatment group is according to a computer-generated randomization schedule.
The Arizona Sexual Experiences Scale (ASEX) is completed at Visits 2 and 7, or early termination. Different versions are used for males and females. This 5 item patient-rated scale assesses sexual experiences with respect to libido, psychological and physiological arousal, ability to attain orgasm, and satisfaction with orgasm. Each item is scored on a 6 point scale with higher numbers indicating greater sexual dysfunction.

[3] = test system: rat dorsal raphe nucleus (DRN) 5-HT neurons; assay: effects on rat dorsal raphe nucleus serotonin neurons (extracellular unitary recordings of firing); format: in vivo; settings: anesthetized rats; two days treatment; escitalopram 10 mg/kg s.c. minipump, bupropion 30 mg/kg s.c. once daily
Experimental: Glass electrodes were lowered into the DRN 5-HT neurons were identified by their firing pattern and spike duration. […] NS). […] The experiments were carried out in male Sprague Dawley rats (Charles River, St. Constant, Québec, Canada) weighing between 300 to 325 g being kept under standard laboratory conditions (12:12 light-dark cycle with access to food and water ad libitum). Rats were anaesthetized with chloral hydrate (400 mg/kg, i.p.) and mounted in a stereotaxic apparatus (David Kopf Instruments, Tujunga, Calif., USA). […] Body temperature was maintained at 37° C. throughout the experiments utilizing a thermistor-controlled heating pad (Seabrook Medical Instruments, Inc., […], Canada). Prior to electrophysiological recording, rats were inserted with a catheter in a lateral tail vein for systemic injection of drugs. Rats received escitalopram oxalate administered through an osmotic minipump implanted subcutaneously, under halothane anaesthesia, which delivered 10 mg/kg/day. The recordings were carried out with the minipump in the animals. Bupropion hydrochloride was injected subcutaneously once a day at a dose of 30 mg/kg for 2 days with the last dose administered immediately prior to the electrophysiological experiments. […] Their impedance range was between 2 and 4 MΩ. […] Serotonin neurons were recorded with micropipettes lowered at +1.0 mm interaural on midline. […]

ASEX Change in total scores (improvement = reduction in score) ([2]; Females)	ASEX Change in total scores (improvement = reduction in score) ([2]; Males)	SMILES	CGI % response [1]	HAMD17 % remission [1]	HAMD24 % response [1]	MADRS % remission [1]	MADRS % response [1]	CGI-I: LS mean (LOCF) [1]	CGI-S: LS mean change from baseline to endpoint (LOCF) [1]	HAMA: LS mean change from baseline to endpoint (LOCF) [1]	HAMD17: LS mean change from baseline to endpoint (LOCF) [1]	HAMD24 2° parameter, validated: LS mean change from baseline to endpoint (LOCF) [1]	HAMD cognit disturb: LS mean change from baseline to endpoint (LOCF) [1]	HAMD psychomotor: LS mean change from baseline to endpoint (LOCF) [1]	MADRS 1° parameter, validated: LS mean change from baseline to endpoint (LOCF) [1]	QOL: LS mean change from baseline to endpoint (LOCF) [1]	spontaneous firing of DRN 5-HT neurons [3] [Hz]
−1.6571	−1.4222	CC(NC(C)(C)C)C(=O)c1cccc(Cl)c1 (racemic) [bupropion, (±)-1-(3-chlorophenyl)-2-[(1,1-dimethylethyl)amino]-1-propanone]	46.6% and 46.62%	29.3% and 29.32%	42.9% and 42.86%	37.6% and 37.59%	43.6% and 43.61%	−0.11	−0.27	−1.31	−0.75	−1.10	−0.21	−0.33	−1.08	1.97	1.54
−1.0000	+0.1667	CN(C)CCC[C@@]1(c2ccc(F)cc2)OCc2cc(C#N)ccc21 [escitalopram, 1-[3-(dimethyl-amino)propyl]-1-(p-fluorophenyl)-5-phthalancarbonitrile]	56.5% and 56.49* %	29.8% and 29.77%	46.6% and 46.56* %	35.9% and 35.88%	47.3% and 47.33* %	0.33*	−0.32*	−1.91*	−0.75	−1.15	−0.29	−0.16	−2.51*	2.25	0.35
